The test system of assay [1] is MRSA. Nature of the assay: Assessment of wound infection: bacterial load (CFU) and Gram staining of wound tissue. The class given is in vivo, Balb/C mice. The following applies: for Gram staining of MRSA / Gram-positive microorganisms in wound sections: Day 3 after inoculation. The method, then: Tissue samples were homogenized in PBS. Serially diluted aliquots of homogenate were cultured on Luria-Bertani agar after incubation for 18 h at 37° C., and cfu/g tissue were subsequently calculated. A stable wound infection was defined as 10^6 cfu/g tissue.
(§1) Full-thickness tissue was harvested for microbial and histological analysis. Samples from each experiment were fixed in 4% buffered paraformaldehyde. Tissue samples were stained with hematoxylin/eosin or Giemsa, and immunohistochemistry (IHC) was analyzed by three independent investigators. Images were taken with a BX-51 microscope (Olympus, Japan).
Multidrug-resistant strains of Staphylococcus aureus (MRSA) commonly associated with human wound infections were selected to generate a polymicrobial solution. The initial inoculum was prepared by culturing aerobic bacteria in Tryptic Soy Broth (TSB) overnight at 37° C. Broths were subsequently centrifuged at 1000 rpm for 15 min, and resuspended in TSB with 15% glycerol, or chopped meat extract with 15% glycerol (for aerobic bacteria). […] Prior to wound application, the bacterial stocks were re-mixed. Microbial load was determined by direct plating, followed by freeze-thaw and cfu enumeration, in parallel with inoculations. The inoculum was delivered by sterile pipettes to the center of open wounds. After euthanization (at Day 0, 3, 7, 14, or 17), two bisected tissue segments were used to determine microbial load using the protocol for human wound biopsy culture, as stated in the UPMC Clinical Microbiology Laboratory Procedure Manual. Tissue biopsies were weighed and placed in 1.5 ml of TSB, and then homogenized in a tissue grinder. A single drop of the homogenate was placed on the slide and Gram stained for rough assessment (if one or more bacteria are present within the oil immersion field, the expected count in the tissue is at least 10^5 cfu/g). Serial dilutions (1:10 (0.1+0.9)) of the tissue homogenate were made using distilled water. The cfu/g of tissue was calculated as follows: cfu/g=plate count (1/dilution)×10/wt. of homogenized tissue.

Assay [2] relates to MRSA. Nature of the assay: MRSA-infected full-thickness skin excision wound in mice: survival, wound closure, angiogenesis. The following applies: for survival of infected mice: wound infected with 10^6 CFU MRSA, topical treatment. The class given is in vivo, Balb/C mice. The method, then: Six to eight week old Balb/C male mice were used for the examples. MRSA culture and quantification were carried out, and suspensions were serially diluted and spread onto LB-agar plates in duplicate for 24 hours. After the incubation period, colony forming units (CFU) were counted, averaged, and expressed as CFU/ml. All animal handing procedures were in accordance with National Taiwan Ocean University (NTOU) guidelines. All procedures were approved by the Animal Care and Use Committee of NTOU.
The mice were housed individually to prevent fighting and further damage to the wounds, and were given ad libitum access to food and water. The mice were maintained under 12 h/12 h light/dark cycle at a room temperature, and adapted to the environment for at least a week before used in the experiments. Each mouse's hair was removed from the back by shaving, and a full-thickness excisional wound (1 cm in diameter) was created on the back of the mice.
(§2) Each wound was inoculated with 50 μl of broth mix containing 10^6 CFU of the indicated microorganism. The wounds were treated with the antimicrobial peptide according to the invention and collagen at 5 min after inoculation. At 30 min after treatment, wounds were covered with Tegaderm to maintain uniformity and to prevent the loss of the materials as treated. The wounds were examined at Day 3, 7, and 14 after the wounds were created, and the non-contaminated wounds were examined every other day. The wounds were examined to assess the transitions from inflammatory to regenerative and regenerative to resolving phases of the wound healing. At the end of the examination period, the animals were euthanized by CO2 inhalation and the wounds were assessed. For each experiment, four individuals were examined in each group at each time point. Each wound was measured and then removed from the animal, with unwounded skin taken from the contralateral abdomen as a control.
Tracings were taken immediately after injury. For uncontaminated wounds, wound size was determined every second day. For contaminated wounds, mice were euthanized at Day 3, 7, 14, or 17, and tracings of the wound edges were made. Wound areas were determined using the Macintosh Adobe Photoshop program and histological examination. The percentage of wound contraction was calculated as follows: % Wound contraction=(A0−At)/A0×100%
where A0 is the area of the original wound, and At is the area of the wound on Day 3, 7, 14, and 17.
Multidrug-resistant strains of Staphylococcus aureus (MRSA) commonly associated with human wound infections were selected to generate a polymicrobial solution. The initial inoculum was prepared by culturing aerobic bacteria in Tryptic Soy Broth (TSB) overnight at 37° C. Broths were subsequently centrifuged at 1000 rpm for 15 min, and resuspended in TSB with 15% glycerol, or chopped meat extract with 15% glycerol (for aerobic bacteria). The concentration was adjusted to 10^6 cfu/50 μl, and stored at −80° C. Prior to wound application, the bacterial stocks were re-mixed. Microbial load was determined by direct plating, followed by freeze-thaw and cfu enumeration, in parallel with inoculations. The inoculum was delivered by sterile pipettes to the center of open wounds. After euthanization (at Day 0, 3, 7, 14, or 17), two bisected tissue segments were used to determine microbial load using the protocol for human wound biopsy culture, as stated in the UPMC Clinical Microbiology Laboratory Procedure Manual. Tissue biopsies were weighed and placed in 1.5 ml of TSB, and then homogenized in a tissue grinder. A single drop of the homogenate was placed on the slide and Gram stained for rough assessment (if one or more bacteria are present within the oil immersion field, the expected count in the tissue is at least 10^5 cfu/g). Serial dilutions (1:10 (0.1+0.9)) of the tissue homogenate were made using distilled water. The cfu/g of tissue was calculated as follows: cfu/g=plate count (1/dilution)×10/wt. of homogenized tissue. […]

In assay [3] the test system is MCP-1, IL-6, TNF. The experiment in a line: Serum cytokine/chemokine ELISA in MRSA-infected wounded mice. The following applies: Epi-1 study, 24 h post-treatment. The class given is in vivo, Balb/C mice.
Source text: (§3) Elisa kits for […] (Cat no. 555260, BD Biosciences, CA, USA), IL-6 (Cat no. 555240, BD Biosciences, CA, USA), and TNF (Cat no. 558534, BD Biosciences, CA, USA) were used to determine cytokine levels. Antibodies against macrophages (Cat no. 550282, BD Biosciences, CA, USA), monocytes (Cat no. 101301, BioLegend, London, UK), and VEGF (Cat no. 550549, BD Biosciences, CA, USA) were used for immunohistochemistry (IHC). Fish scale collagen peptides (FSCPs) were isolated from tilapia (Oreochromis sp.) by the Seafood Technology Division, Fisheries Research Institute, Council of Agriculture, Taiwan.
as §2
In general terms: ELISA stands for enzyme-linked immunosorbent assay.

The test system of assay [4] is monocytes, macrophages, VEGF. The experiment in a line: Histology (H&E, Giemsa) and immunohistochemistry of wound tissue. The class given is in vivo, Balb/C mice.
Source text: as §3, §1

In assay [5] the test system is MRSA. Nature of the assay: Antimicrobial MIC/MBC assay against MRSA in vitro. The class given is cell-based, Staphylococcus aureus. The following applies: bacterial proliferation by optical density at 600 nm. As for the experimental part: Minimum inhibitory concentration (MIC) and minimum bactericidal concentration (MBC) antimicrobial assays were performed. For MIC assessment, the antimicrobial peptide, Epi-1, was diluted to final concentrations of […], or 0.78 μg/ml. Twenty microliters of each dilution were mixed in a microtiter plate well with […] of the appropriate bacterial indicator suspension, and 160 μl of Trypticase Soy Broth (TSB) for S. aureus, to a total volume of 200 μl. Three replicates were examined for each S. aureus strain, compound, and concentration. Positive controls contained water instead of compounds, and negative controls contained compounds without bacterial suspensions. Microbial growth was automatically determined by optical density measurement at 600 nm (Bioscreen C, Labsystem, Helsinki, Finland). Microplates were incubated at 25° C. for plant pathogens and at 37° C. for food-borne bacterial strains. Absorbance readings were taken at hourly intervals over a 48 h period. Plates were shaken for 20 seconds before each measurement. The experiment was repeated twice.

The values below come from patent US9750844B2, “Composition for use in wound healing in burns” (ACADEMIA SINICA, priority 2014, dated 2017).

“Also recorded” adds a separate entry of the source.

Take `COc1cccc(OC)c1C(=O)N[C@@H]1C(=O)N2[C@@H]1SC(C)(C)[C@@H]2C(=O)O` [methicillin]: the “Gram staining of MRSA / Gram-positive microorganisms in wound sections” value in assay [1] was “completely abolished”. Moreover, in assay [1] (initial inoculum approximately 10^4 cfu/10 μl), the “wound flora at Day 3” value is “about 10^8 cfu/10 μl”. In assay [2] (contaminated wounds, GE33 study (FIG. 8B)), the wound closure time entry is “lack of closure”. Moreover, the “survival of infected mice” value in assay [2] is listed as “died within four days”. Besides, in assay [3], the “induction of IL-6 in serum” value was “unaffected” and the “induction of TNF-α in serum” value is given as “unaffected”.

On to `CN[C@H](CC(C)C)C(=O)N[C@H]1C(=O)N[C@@H](CC(N)=O)C(=O)N[C@H]2C(=O)N[C@H]3C(=O)N[C@H](C(=O)N[C@H](C(=O)O)c4cc(O)cc(O)c4-c4cc3ccc4O)[C@H](O)c3ccc(c(Cl)c3)Oc3cc2cc(c3O[C@@H]2O[C@H](CO)[C@@H](O)[C@H](O)[C@H]2O[C@H]2C[C@](C)(N)[C@H](O)[C@H](C)O2)Oc2ccc(cc2Cl)[C@H]1O` [vancomycin], for which the “colony counts between Days 7 and 17” value in assay [1] (MRSA-contaminated wounds) is “decreased”. In assay [2], the “survival of infected mice” value is “survived”. The “healing and re-epithelialization of excision region” value in assay [2] (wound infected with 10^6 cfu MRSA, 3, 7, 14 days) is reported as “re-epithelialization observed”. Further, the “overall epidermal maturation, keratinization and regeneration of the epithelium” value in assay [4] (histology of wounds) is recorded as “impairment in overall epidermal maturation”. Also, in assay [3], the “induction of IL-6 in serum” value is “significantly decreased” and the “induction of TNF-α in serum” value was “significantly decreased”.

For “Epinecidin-1 (GFIFHIIKGLFHAGKMIHGLV; grouper) [Epi-1]”, in assay [5], the “antibacterial efficacy against MRSA in vitro” value is given as “good antibacterial efficacy”. Further, in assay [1] (24 h after treatment, compared to the control), the “MRSA CFU in cultured injured skin sections” value was “significantly reduced”. In addition, in assay [1], the “Gram staining of MRSA / Gram-positive microorganisms in wound sections” value was “completely abolished; also recorded: more efficient at attenuating MRSA infection than vancomycin”. In assay [1] (MRSA-infected mice, compared with vancomycin), the “bacterial counts in cultured skin sections (CFU)” value is “significantly lower”. Further, the wound closure result in assay [2] (MRSA-infected wound, compared to vancomycin-treated mice and control mice) is on record as “faster”. Also, the “new blood vessel formation (angiogenesis)” value in assay [2] (MRSA-infected wounded skin, light microscopy) is “more prominent”. In assay [4] (infected wound, Day 3), the “IHC staining of VEGF” value is reported as “clearly reduced”, the “IHC staining/infiltration of macrophages” value is reported as “clearly reduced” and the “IHC staining/infiltration of monocytes” value is “clearly reduced”. For the same compound, the “accumulation/recruitment of monocytes (Giemsa staining)” value in assay [4] (wounded area tissue sections, MRSA-infected) is “reduced their recruitment”. In addition, in assay [3], the “MCP-1 induction by MRSA in serum” value is recorded as “decreased”, the “induction of IL-6 in serum” value is on record as “significantly decreased” and the “induction of TNF-α in serum” value is reported as “significantly decreased”.
